Measurements reported in ChEMBL document CHEMBL5260792, “Benzophenone: a ubiquitous scaffold in medicinal chemistry” (Medchemcomm, 2018).
Values after ≈ are worked out from the molar mass of the structure shown.

What was measured:
[1] = Anti-inflammatory activity in human PBMC cells assessed as inhibition of LPS-induced TNF-alpha production; format: functional, cell-based
[2] = Anti-inflammatory activity in human PBMC cells assessed as inhibition of LPS-induced […] production; format: functional, cell-based
[3] = test system: Human immunodeficiency virus 1; assay: Antiviral activity against HIV-1 assessed as reduction in virus-induced cytopathic effect; format: functional, organism-based
[4] = test system: Human immunodeficiency virus 1; assay: Antiviral activity against HIV-1 K103N mutant; format: functional, organism-based
[5] = test system: Human immunodeficiency virus 1; assay: Antiviral activity against HIV-1 V106I mutant; format: functional, organism-based
[6] = test system: Human immunodeficiency virus 1; assay: Antiviral activity against HIV-1 V108I mutant; format: functional, organism-based
[7] = test system: Human immunodeficiency virus 1; assay: Antiviral activity against HIV-1 K101E mutant; format: functional, organism-based
[8] = test system: Human immunodeficiency virus 1; assay: Antiviral activity against HIV-1 L100I mutant; format: functional, organism-based
[9] = test system: Human immunodeficiency virus 1; assay: Antiviral activity against HIV-1 G190A mutant; format: functional, organism-based
[10] = test system: Human immunodeficiency virus 1; assay: Antiviral activity against HIV-1 P225H mutant; format: functional, organism-based
[11] = test system: Human immunodeficiency virus 1; assay: Antiviral activity against HIV-1 P236L mutant; format: functional, organism-based
[12] = test system: Human immunodeficiency virus 1; assay: Antiviral activity against HIV-1 Y181C mutant; format: functional, organism-based
[13] = test system: Human immunodeficiency virus 1; assay: Antiviral activity against HIV-1 Y188C mutant; format: functional, organism-based
[14] = test system: Human immunodeficiency virus 1; assay: Antiviral activity against HIV-1 E138K mutant; format: functional, organism-based
[15] = test system: Human immunodeficiency virus 1; assay: Antiviral activity against HIV-1 harboring K103N/Y181C double mutant; format: functional, organism-based
[16] = test system: Human immunodeficiency virus 1; assay: Antiviral activity against HIV-1 harboring K103N/P225H double mutant; format: functional, organism-based
[17] = test system: Human immunodeficiency virus 1; assay: Antiviral activity against HIV-1 harboring K103N/L100I double mutant; format: functional, organism-based
[18] = test system: Human immunodeficiency virus 1; assay: Antiviral activity against HIV-1 harboring K103N/V108I double mutant; format: functional, organism-based
[19] = test system: Human immunodeficiency virus 1; assay: Antiviral activity against HIV-1 harboring V108I/Y181C double mutant; format: functional, organism-based
[20] = biological target: T1, Glutathione S-transferase A1 (Homo sapiens, UniProt P08263); assay: Inhibition of recombinant human GSTA1-1
T1 sequence (P08263 whole entry): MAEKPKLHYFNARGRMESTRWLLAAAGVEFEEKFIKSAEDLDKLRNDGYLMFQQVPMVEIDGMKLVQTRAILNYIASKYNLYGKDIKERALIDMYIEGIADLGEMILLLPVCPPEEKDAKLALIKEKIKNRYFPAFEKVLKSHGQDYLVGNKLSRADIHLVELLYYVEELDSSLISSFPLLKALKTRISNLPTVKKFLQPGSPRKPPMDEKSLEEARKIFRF

[21] = biological target: Mitogen-activated protein kinase 14 (Homo sapiens, UniProt Q16539); assay: Inhibition of P38alphaMAPK (unknown origin)
[22] = test system: MCF7; assay: Antiproliferative activity against human MCF7 cells; format: functional, cell-based
[23] = test system: Leishmania; assay: Antileishmanial activity against Leishmania assessed as reduction in parasite growth; format: functional, organism-based
[24] = test system: Human immunodeficiency virus 1; assay: Antiviral activity against HIV-1; format: functional, organism-based
[25] = Inhibition of FTase (unknown origin) by Perkin elmer analysis; parameters: species or system Homo sapiens
[26] = test system: Plasmodium falciparum; assay: Antiplasmodial activity against Plasmodium falciparum assessed as reduction in parasite growth; format: functional, organism-based
[27] = test system: Plasmodium falciparum; assay: In vivo antiplasmodial activity against Plasmodium falciparum infected in mouse model; format: functional
[28] = test system: K562; assay: Antiproliferative activity against human K562 cells assessed as reduction in cell viability by MTT assay; format: functional, cell-based
[29] = test system: CCRF-CEM; assay: Antiproliferative activity against human CEM cells assessed as reduction in cell viability by MTT assay; format: functional, cell-based
[30] = test system: Rattus norvegicus; assay: Anti-hyperlipidemic activity in rat assessed as reduction in total cholesterol level at 15 mg/kg, po measured after 18 hrs; format: functional; parameters: scale not given: the % may be the effect or the level left
[31] = test system: Rattus norvegicus; assay: Anti-hyperlipidemic activity in rat assessed as reduction in triglyceride level at 15 mg/kg, po measured after 18 hrs; format: functional; parameters: scale not given: the % may be the effect or the level left
[32] = Antiproliferative activity against mouse DLA cell expressing VEGF-A by MTT assay; format: functional, cell-based
[33] = test system: Ehrlich; assay: Antiproliferative activity against mouse EAC cell expressing VEGF-A by MTT assay; format: functional, cell-based
[34] = Cytotoxicity against human HUVEC cells assessed as inhibition of cell growth; format: toxicity, cell-based

Mitogen-activated protein kinase 14, sequence (Q16539 whole entry): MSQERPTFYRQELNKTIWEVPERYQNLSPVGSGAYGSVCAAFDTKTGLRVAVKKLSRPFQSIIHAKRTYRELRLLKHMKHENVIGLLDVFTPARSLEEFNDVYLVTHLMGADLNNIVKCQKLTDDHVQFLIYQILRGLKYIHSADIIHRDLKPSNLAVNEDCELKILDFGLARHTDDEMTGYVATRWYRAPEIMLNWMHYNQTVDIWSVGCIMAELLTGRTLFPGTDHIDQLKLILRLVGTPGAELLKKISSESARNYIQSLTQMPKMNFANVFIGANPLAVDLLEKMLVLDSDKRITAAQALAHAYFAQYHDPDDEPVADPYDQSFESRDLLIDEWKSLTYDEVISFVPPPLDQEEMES

## Cc1cc(F)ccc1Nc1ccc(C(=O)c2ccccc2C)c(Cl)c1
[1]
  IC50: 4 nM
[2]; Homo sapiens, PBMC
  IC50: 14 nM

## Nc1ccccc1Nc1ccc(C(=O)c2ccccc2)cc1
[1]
  IC50: 159 nM
[2]
  IC50: 226 nM

## Cc1ccccc1C(=O)c1ccc(Nc2ccccc2N)cc1Cl
[1]
  IC50: 4 nM
[2]; Homo sapiens, PBMC
  IC50: 14 nM

## Cc1cc(S(N)(=O)=O)ccc1NC(=O)COc1ccc(Cl)cc1C(=O)c1cccc(C#N)c1
[3]
  IC50: < 2 nM
[4]
  IC50: < 10 nM
[5]
  IC50: < 10 nM
[6]
  IC50: < 10 nM
[7]
  IC50: < 10 nM
[8]
  IC50: < 10 nM
[9]
  IC50: < 10 nM
[10]
  IC50: < 10 nM
[11]
  IC50: < 10 nM
[12]
  IC50: < 10 nM
[13]
  IC50: < 10 nM
[14]
  IC50: < 10 nM
[15]
  IC50: < 10 nM
[16]
  IC50: < 10 nM
[17]
  IC50: < 10 nM
[18]
  IC50: < 10 nM
[19]
  IC50: < 10 nM

## Cc1cc(OCCCS(N)(=O)=O)ccc1NC(=O)COc1ccc(Cl)cc1C(=O)c1cc(F)cc(C(F)(F)F)c1
[3]
  IC50: < 2 nM
[4]
  IC50: < 10 nM
[5]
  IC50: < 10 nM
[6]
  IC50: < 10 nM
[7]
  IC50: < 10 nM
[8]
  IC50: < 10 nM
[9]
  IC50: < 10 nM
[10]
  IC50: < 10 nM
[11]
  IC50: < 10 nM
[12]
  IC50: < 10 nM
[13]
  IC50: < 10 nM
[14]
  IC50: < 10 nM
[15]
  IC50: < 10 nM
[16]
  IC50: < 10 nM
[17]
  IC50: < 10 nM
[18]
  IC50: < 10 nM
[19]
  IC50: < 10 nM

## Cc1cc(S(N)(=O)=O)ccc1NC(=O)COc1ccc(Cl)cc1C(=O)c1cc(F)cc(C(F)(F)F)c1
[3]
  IC50: < 2 nM
[4]
  IC50: < 10 nM
[5]
  IC50: < 10 nM
[6]
  IC50: < 10 nM
[7]
  IC50: < 10 nM
[8]
  IC50: < 10 nM
[9]
  IC50: < 10 nM
[10]
  IC50: < 10 nM
[11]
  IC50: < 10 nM
[12]
  IC50: < 10 nM
[13]
  IC50: < 10 nM
[14]
  IC50: < 10 nM
[15]
  IC50: < 10 nM
[16]
  IC50: < 10 nM
[17]
  IC50: < 10 nM
[18]
  IC50: < 10 nM
[19]
  IC50: < 10 nM

## O=C(c1ccccc1O)c1cc(Br)ccc1O
[20]
  IC50: 180 nM

## Cc1ccccc1C(=O)c1ccc(Nc2ccc(Br)cc2N)cc1Cl
[1]
  IC50: 4 nM
[2]; Homo sapiens, PBMC
  IC50: 14 nM

## COc1ccc(C#CC(C)(C)N)cc1C(=O)c1ccc(Nc2ccc(F)cc2F)cc1
[21]
  IC50: 14 nM

## Cc1cccc(C(=O)c2ccc(OCC(=O)NNC(=O)C3CN(Cc4ccccc4)CCO3)c(C)c2)c1 (centres undefined)
[22]
  IC50: 9300 nM

## Cc1cc(C(=O)NC2CC2)ccc1-c1ccc(C(=O)c2cccc(CCC(O)CO)c2)cc1 (centres undefined)
[21]
  IC50: 27 nM

## O=C(COc1ccc(C(=O)c2ccccc2)cc1)c1ccc(Cl)c(Cl)c1
[23]
  IC50: 1.19 µg/mL (≈ 3.09 µM)

## Cc1cc(C)cc(C(=O)c2cc(Cl)ccc2OC(C)C(=O)Nc2ccc(S(N)(=O)=O)cc2)c1 (centres undefined)
[24]
  EC50: 2.9 nM

## Cc1cc(C(=O)c2cccc(Br)c2)ccc1OCC(=O)NNC(=O)C1CN(Cc2ccccc2)CCO1 (centres undefined)
[22]
  IC50: 7100 nM

## CN(C)CCN(C)C(C(=O)Nc1ccc(NC(=O)/C=C/c2ccc(-c3ccc([N+](=O)[O-])cc3)o2)cc1C(=O)c1ccccc1)c1ccccc1 (centres undefined)
[25]
  IC50: 21 nM
[26]
  IC50: 32 nM
[27]
  ED50: 16 mg/kg

## Cc1cccc(C(=O)c2cc(Cl)ccc2OCC(=O)Nc2ccc([N+](=O)[O-])cc2C)c1
[24]
  EC50: 4.2 nM

## COc1ccc(C(=O)c2ccc(OCC(=O)N3CCC(CCCC4CCN(C(=O)c5ccc(Cl)cc5)CC4)CC3)cc2)c(OC)c1
[28]
  IC50: 1600 nM
[29]
  IC50: 1600 nM

## O=C(c1ccccc1)c1cccc(NC(=O)c2ccc(-c3cccc(O)c3)o2)c1
[30]
  Activity: 88%
[31]
  Activity: 84%

## COc1ccc(-c2csc(NC(=O)COc3ccc(C(=O)c4ccc(F)cc4C)cc3C)n2)cc1
[32]
  IC50: 5000 nM
[33]
  IC50: 5000 nM

## COc1ccc(C(=O)c2ccc(OCC(=O)N3CCC(CCCC4CCN(C(=S)c5ccc(Cl)cc5)CC4)CC3)cc2)c(OC)c1
[28]
  IC50: 1600 nM
[29]
  IC50: 1600 nM

## CC(C)(C)c1[nH]cnc1/C=c1\[nH]c(=O)/c(=C/c2ccccc2)[nH]c1=O [PLINABULIN]
[34]
  IC50: 10 nM
